Experimental data taken from the NIST ThermoML archive (doi:10.1016/j.jct.2013.09.041).

What was measured:
[1] = 323.15 K, 101.33 kPa, Liquid
[2] = mn = molality of the nth substance listed, in mol/kg; settings: 323.15 K, 101 kPa, Liquid, Vibrating tube method
[3] = osmotic coefficient (dimensionless); mn = molality of the nth substance listed, in mol/kg; settings: 323.15 K, 101 kPa, Liquid, A Knauer K-7000 vapor pressure osmometer

CCCCCCn1cc[n+](C)c1.O=S(=O)([O-])C(F)(F)F [1-hexyl-3-methylimidazolium trifluoromethanesulfonate]
[1]
Settings | mass density [kg/m3] | speed of sound [m/s]
Sing-around technique in a fixed-path interferometer | – | 1327.2
Vibrating tube method | 1217.24 | –

CCCCCCn1cc[n+](C)c1.O=S(=O)([O-])C(F)(F)F [1-hexyl-3-methylimidazolium trifluoromethanesulfonate] + CC(C)O
Settings | mass density [kg/m3] | osmotic coefficient
[2], m1 = 0.051 | 763.8 | –
[2], m1 = 0.102 | 768.55 | –
[2], m1 = 0.152 | 773.15 | –
[2], m1 = 0.204 | 777.8 | –
[2], m1 = 0.252 | 782.08 | –
[2], m1 = 0.301 | 786.21 | –
[2], m1 = 0.355 | 790.72 | –
[2], m1 = 0.404 | 794.75 | –
[2], m1 = 0.455 | 798.81 | –
[2], m1 = 0.504 | 802.65 | –
[2], m1 = 0.606 | 810.57 | –
[2], m1 = 0.709 | 818.13 | –
[2], m1 = 0.802 | 824.81 | –
[2], m1 = 0.908 | 831.9 | –
[2], m1 = 1.012 | 838.62 | –
[3], m1 = 0.026 | – | 0.991
[3], m1 = 0.043 | – | 0.954
[3], m1 = 0.1 | – | 0.886
[3], m1 = 0.2 | – | 0.758
[3], m1 = 0.305 | – | 0.659
[3], m1 = 0.412 | – | 0.616
[3], m1 = 0.526 | – | 0.585
[3], m1 = 0.819 | – | 0.538
[3], m1 = 1.221 | – | 0.476
[3], m1 = 1.62 | – | 0.444
[3], m1 = 2.033 | – | 0.42
[3], m1 = 2.449 | – | 0.387
[3], m1 = 2.822 | – | 0.378
[3], m1 = 3.344 | – | 0.364
[3], m1 = 3.646 | – | 0.359

CCCCCCn1cc[n+](C)c1.O=S(=O)([O-])C(F)(F)F [1-hexyl-3-methylimidazolium trifluoromethanesulfonate] + CCC(C)O
Settings | mass density [kg/m3] | osmotic coefficient
[2], m1 = 0.052 | 785.45 | –
[2], m1 = 0.102 | 789.95 | –
[2], m1 = 0.153 | 794.44 | –
[2], m1 = 0.203 | 798.75 | –
[2], m1 = 0.302 | 806.95 | –
[2], m1 = 0.352 | 810.99 | –
[2], m1 = 0.403 | 815.07 | –
[2], m1 = 0.45 | 818.65 | –
[2], m1 = 0.5029 | 822.68 | –
[2], m1 = 0.597 | 829.6 | –
[2], m1 = 0.7 | 836.92 | –
[2], m1 = 0.797 | 843.69 | –
[2], m1 = 0.907 | 850.73 | –
[2], m1 = 1.002 | 856.64 | –
[3], m1 = 0.056 | – | 0.823
[3], m1 = 0.079 | – | 0.797
[3], m1 = 0.107 | – | 0.76
[3], m1 = 0.215 | – | 0.626
[3], m1 = 0.296 | – | 0.576
[3], m1 = 0.401 | – | 0.513
[3], m1 = 0.513 | – | 0.487
[3], m1 = 0.809 | – | 0.426
[3], m1 = 1.206 | – | 0.393
[3], m1 = 1.608 | – | 0.38
[3], m1 = 2.032 | – | 0.362
[3], m1 = 2.426 | – | 0.351
[3], m1 = 2.776 | – | 0.342
[3], m1 = 3.311 | – | 0.337
[3], m1 = 3.703 | – | 0.332

CCCCCCn1cc[n+](C)c1.O=S(=O)([O-])C(F)(F)F [1-hexyl-3-methylimidazolium trifluoromethanesulfonate] + CCCCCO
Settings | mass density [kg/m3] | osmotic coefficient
[2], m1 = 0.05 | 796.7 | –
[2], m1 = 0.1 | 801.05 | –
[2], m1 = 0.151 | 805.37 | –
[2], m1 = 0.202 | 809.6 | –
[2], m1 = 0.254 | 813.84 | –
[2], m1 = 0.3 | 817.52 | –
[2], m1 = 0.401 | 825.41 | –
[2], m1 = 0.498 | 832.62 | –
[2], m1 = 0.61 | 840.59 | –
[2], m1 = 0.705 | 847.05 | –
[2], m1 = 0.803 | 853.55 | –
[2], m1 = 0.849 | 856.48 | –
[2], m1 = 1 | 865.7 | –
[3], m1 = 0.053 | – | 0.784
[3], m1 = 0.084 | – | 0.599
[3], m1 = 0.108 | – | 0.51
[3], m1 = 0.194 | – | 0.44
[3], m1 = 0.313 | – | 0.392
[3], m1 = 0.415 | – | 0.345
[3], m1 = 0.512 | – | 0.331
[3], m1 = 0.829 | – | 0.299
[3], m1 = 1.216 | – | 0.293
[3], m1 = 1.64 | – | 0.276
[3], m1 = 2.047 | – | 0.27
[3], m1 = 2.461 | – | 0.255
[3], m1 = 2.845 | – | 0.244
[3], m1 = 3.322 | – | 0.226
